Legend:
Type in all cases: cell-based
human TLR7 = biological target: T1, human TLR7 (Homo sapiens, UniProt Q9NYK1); assay: TLR7 inhibition reporter assay (HEK-Blue SEAP); conditions: HEK-Blue cells overexpressing human TLR7, stimulated with gardiquimod 7.5 μM, 22 hour incubation
T1 construct: host or cells: HEK-Blue cells
T1 sequence (Q9NYK1 27-1049): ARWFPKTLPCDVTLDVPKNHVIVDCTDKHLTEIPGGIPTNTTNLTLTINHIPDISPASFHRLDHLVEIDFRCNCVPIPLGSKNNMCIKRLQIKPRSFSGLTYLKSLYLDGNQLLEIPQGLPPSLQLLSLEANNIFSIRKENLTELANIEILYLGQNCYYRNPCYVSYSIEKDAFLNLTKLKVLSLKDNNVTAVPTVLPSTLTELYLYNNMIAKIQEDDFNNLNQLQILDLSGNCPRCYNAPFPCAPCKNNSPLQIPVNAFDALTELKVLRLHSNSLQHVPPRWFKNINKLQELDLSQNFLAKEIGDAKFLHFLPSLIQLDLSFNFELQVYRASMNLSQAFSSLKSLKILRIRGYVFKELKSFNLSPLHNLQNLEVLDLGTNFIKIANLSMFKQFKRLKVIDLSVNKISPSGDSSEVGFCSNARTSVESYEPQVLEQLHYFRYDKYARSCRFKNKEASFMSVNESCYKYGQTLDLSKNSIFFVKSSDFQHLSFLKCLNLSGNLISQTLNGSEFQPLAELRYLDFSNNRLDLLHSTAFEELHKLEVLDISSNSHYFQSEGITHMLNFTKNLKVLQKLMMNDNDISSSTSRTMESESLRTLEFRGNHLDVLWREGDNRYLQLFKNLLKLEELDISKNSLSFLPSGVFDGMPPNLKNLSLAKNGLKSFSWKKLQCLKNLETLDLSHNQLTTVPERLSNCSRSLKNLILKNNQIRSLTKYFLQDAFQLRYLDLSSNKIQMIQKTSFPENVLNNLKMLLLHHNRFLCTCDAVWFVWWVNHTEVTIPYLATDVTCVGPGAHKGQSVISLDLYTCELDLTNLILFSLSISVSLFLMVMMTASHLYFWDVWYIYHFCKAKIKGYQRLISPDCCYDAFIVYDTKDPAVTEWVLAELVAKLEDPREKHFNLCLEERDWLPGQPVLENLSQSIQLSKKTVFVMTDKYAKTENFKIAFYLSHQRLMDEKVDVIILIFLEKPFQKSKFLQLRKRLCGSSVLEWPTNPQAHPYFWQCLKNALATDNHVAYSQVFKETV
Procedure: (§1) TLR7/8/9 Inhibition Reporter Assays
(§2) HEK-Blue™-cells (Invivogen) overexpressing human TLR7, TLR8 or TLR9 receptors were used for screening inhibitors of these receptors using an inducible SEAP (secreted embryonic alkaline phosphatase) reporter gene under the control of the IFN-β minimal promoter fused to five NF-κB and AP-1-binding sites. Briefly, cells are seeded into Greiner 384 well plates (15000 cells per well for TLR7, 20.000 for TLR8 and 25,000 for TLR9) and then treated with test compounds in DMSO to yield a final dose response concentration range of 0.05 nM-50 μM. After a 30 minute compound pre-treatment at room temperature, the cells are then stimulated with a TLR7 ligand (gardiquimod at a final concentration of 7.5 μM), TLR8 ligand (R848 at a final concentration of 15.9 μM) or TLR9 ligand (ODN2006 at a final concentration of 5 nM) to activate NF-κB and AP-1 which induce the production of SEAP. After a 22 hour incubation at 37° C., 5% CO2, SEAP levels are determined with the addition of HEK-Blue™ Detection reagent (Invivogen), a cell culture medium that allows for detection of SEAP, according to manufacturer's specifications. The percent inhibition is determined as the % reduction in the HEK-Blue signal present in wells treated with agonist plus DMSO alone compared to wells treated with a known inhibitor.

human TLR9 = biological target: T2, human TLR9 (Homo sapiens, UniProt Q9NR96); assay: TLR9 inhibition reporter assay (HEK-Blue SEAP); conditions: HEK-Blue cells overexpressing human TLR9, stimulated with ODN2006 5 nM, 22 hour incubation
T2 construct: host or cells: HEK-Blue cells
T2 sequence (Q9NR96 26-1032): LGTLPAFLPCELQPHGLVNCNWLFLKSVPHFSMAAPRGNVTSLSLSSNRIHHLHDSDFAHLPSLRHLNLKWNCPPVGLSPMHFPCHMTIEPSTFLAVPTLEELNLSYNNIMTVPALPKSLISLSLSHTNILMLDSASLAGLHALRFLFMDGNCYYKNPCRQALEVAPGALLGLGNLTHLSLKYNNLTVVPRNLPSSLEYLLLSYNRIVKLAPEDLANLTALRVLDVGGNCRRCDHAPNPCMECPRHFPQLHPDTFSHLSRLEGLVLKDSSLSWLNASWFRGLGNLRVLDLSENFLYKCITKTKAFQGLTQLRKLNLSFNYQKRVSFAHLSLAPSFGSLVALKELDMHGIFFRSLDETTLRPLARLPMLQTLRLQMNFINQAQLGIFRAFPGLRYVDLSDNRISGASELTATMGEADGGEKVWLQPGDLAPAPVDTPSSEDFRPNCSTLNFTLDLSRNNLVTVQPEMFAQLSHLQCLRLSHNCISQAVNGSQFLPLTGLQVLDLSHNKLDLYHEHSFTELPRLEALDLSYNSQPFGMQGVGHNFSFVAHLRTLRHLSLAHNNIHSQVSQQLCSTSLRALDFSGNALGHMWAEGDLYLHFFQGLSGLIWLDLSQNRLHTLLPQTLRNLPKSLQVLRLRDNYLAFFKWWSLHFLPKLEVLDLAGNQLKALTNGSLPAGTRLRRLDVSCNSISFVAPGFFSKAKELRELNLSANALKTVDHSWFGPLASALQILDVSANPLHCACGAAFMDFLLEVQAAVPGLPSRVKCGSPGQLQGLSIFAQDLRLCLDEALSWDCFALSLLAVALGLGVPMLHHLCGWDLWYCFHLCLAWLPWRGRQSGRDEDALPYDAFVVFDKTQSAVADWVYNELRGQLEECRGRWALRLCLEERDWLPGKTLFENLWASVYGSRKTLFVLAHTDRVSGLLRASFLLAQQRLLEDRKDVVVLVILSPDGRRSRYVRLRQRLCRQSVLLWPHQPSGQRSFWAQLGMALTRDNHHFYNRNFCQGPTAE
Procedure: as §1, §2

human TLR8 = biological target: T3, human TLR8 (Homo sapiens, UniProt Q9NR97); assay: TLR8 inhibition reporter assay (HEK-Blue SEAP); conditions: HEK-Blue cells overexpressing human TLR8, stimulated with R848 15.9 μM, 22 hour incubation
T3 construct: host or cells: HEK-Blue cells
T3 sequence (Q9NR97 27-1041): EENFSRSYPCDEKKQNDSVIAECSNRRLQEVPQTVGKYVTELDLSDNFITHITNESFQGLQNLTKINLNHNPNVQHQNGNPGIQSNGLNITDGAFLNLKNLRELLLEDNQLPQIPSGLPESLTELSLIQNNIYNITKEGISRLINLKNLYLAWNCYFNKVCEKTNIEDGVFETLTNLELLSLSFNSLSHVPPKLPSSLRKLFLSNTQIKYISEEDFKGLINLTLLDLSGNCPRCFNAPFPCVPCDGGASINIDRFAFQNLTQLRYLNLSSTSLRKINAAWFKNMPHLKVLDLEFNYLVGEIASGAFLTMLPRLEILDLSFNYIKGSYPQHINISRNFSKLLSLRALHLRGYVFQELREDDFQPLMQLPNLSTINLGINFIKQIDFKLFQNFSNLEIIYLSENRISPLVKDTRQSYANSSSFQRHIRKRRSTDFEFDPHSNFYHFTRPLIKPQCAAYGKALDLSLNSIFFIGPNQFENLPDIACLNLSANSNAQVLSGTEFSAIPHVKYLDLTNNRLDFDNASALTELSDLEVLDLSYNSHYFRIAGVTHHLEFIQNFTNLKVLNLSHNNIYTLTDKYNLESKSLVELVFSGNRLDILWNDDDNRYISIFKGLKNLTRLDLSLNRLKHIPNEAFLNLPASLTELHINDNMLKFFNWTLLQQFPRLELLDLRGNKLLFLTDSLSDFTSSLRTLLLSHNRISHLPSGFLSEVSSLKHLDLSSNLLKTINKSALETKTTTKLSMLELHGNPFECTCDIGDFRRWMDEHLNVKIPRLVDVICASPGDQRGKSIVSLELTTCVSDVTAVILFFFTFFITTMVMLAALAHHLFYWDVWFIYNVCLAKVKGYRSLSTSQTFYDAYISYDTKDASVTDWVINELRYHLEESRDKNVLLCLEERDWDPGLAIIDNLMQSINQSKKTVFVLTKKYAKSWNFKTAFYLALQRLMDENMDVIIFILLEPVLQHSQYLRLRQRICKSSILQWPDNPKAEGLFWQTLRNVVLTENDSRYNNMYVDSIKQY
Procedure: as §1, §2

Row | IC50 (human TLR7) [µM] | IC50 (human TLR9) [µM] | IC50 (human TLR8) [µM] | Structure (SMILES)
1 | 0.0099 | 1.42 | 0.0118 | Cc1cc(-c2[nH]c3ccc(OC4CCN(C(=O)CN(C)C)CC4)cc3c2C(C)C)ccn1 [Example 196, 2-(dimethylamino)-1-(4-((3-isopropyl-2-(2-methylpyridin-4-yl)-1H-indol-5-yl)oxy)piperidin-1-yl)ethan-1-one]
2 | 0.33 | 0.354 | 0.22 | Cc1cc(-c2[nH]c3ccc(OCC(=O)N4CCCCC4C4CCNCC4)cc3c2C(C)C)ccn1 (stereo not drawn) [Example 143, 1-([2,4′-bipiperidin]-1-yl)-2-((3-isopropyl-2-(2-methylpyridin-4-yl)-1H-indol-5-yl)oxy)ethan-1-one]
3 | 0.0621 | 0.576 | 0.0542 | COc1ccc(-c2[nH]c3ccc(OCC(=O)NC4CCCC(N)C4)cc3c2C(C)C)cc1OC (stereo not drawn) [Example 128, N-(3-aminocyclohexyl)-2-((2-(3,4-dimethoxyphenyl)-3-isopropyl-1H-indol-5-yl)oxy) acetamide]
4 | 0.349 | 0.383 | 0.0784 | Cc1cc(-c2[nH]c3ccc(OCC(=O)NC4CCC5CNCC54)cc3c2C(C)C)ccn1 (stereo not drawn) [Example 142, 2-((3-isopropyl-2-(2-methylpyridin-4-yl)-1H-indol-5-yl)oxy)-N-(octahydrocyclopenta[c]pyrrol-4-yl)acetamide]
5 | 1 | > 50 | 0.774 | Cc1cc(-c2[nH]c3ccc(OCC(=O)NC[C@@H](F)C(C)(C)O)cc3c2C(C)C)ccn1 [Example 152, (R)—N-(2-fluoro-3-hydroxy-3-methylbutyl)-2-((3-isopropyl-2-(2-methylpyridin-4-yl)-1H-indol-5-yl)oxy)acetamide]
6 | 0.38 | 0.309 | 0.009 | CCc1c(-c2ccc(OC)c(OC)c2)[nH]c2ccc(OC3CCN(C4CCN(CC(C)C)CC4)CC3)cc12 [Example 118, 2-(3,4-dimethoxyphenyl)-3-ethyl-5-((1′-isobutyl-[1,4′-bipiperidin]-4-yl)oxy)-1H-indole]

Continued, compound first:

Row | Structure (SMILES) | IC50 (human TLR7) [µM] | IC50 (human TLR9) [µM] | IC50 (human TLR8) [µM]
7 | Cc1c(-c2[nH]c3ccc(OC4CCN(C)CC4)cc3c2C(C)C)cn2cnnc2c1C [Example 53, 6-(3-isopropyl-5-((1-methylpiperidin-4-yl)oxy)-1H-indol-2-yl)-7,8-dimethyl-[1,2,4]triazolo[4,3-a]pyridine] | 0.0019 | 0.494 | 0.0033
8 | COc1ccc(-c2[nH]c3ccc(OCC(=O)NCCN)cc3c2C(C)C)cc1OC [Example 117, N-(2-aminoethyl)-2-((2-(3,4-dimethoxyphenyl)-3-isopropyl-1H-indol-5-yl)oxy)acetamide] | 0.12 | 1.57 | 0.0361
9 | Cc1cc(-c2[nH]c3ccc(OCC4CN(CCS(C)(=O)=O)C4)cc3c2C(C)C)cn2ncnc12 [Example 92, 6-(3-isopropyl-5-((1-(2-(methylsulfonyl)ethyl)azetidin-3-yl)methoxy)-1H-indol-2-yl)-8-methyl-[1,2,4]triazolo[1,5-a]pyridine] | 0.0012 | 6.04 | 0.0038
10 | Cc1c(-c2[nH]c3ccc(OCC4CCN(C(C)C)CC4)cc3c2C(C)C)cn(C)c(=O)c1C [Example 49, 5-(3-isopropyl-5-((1-isopropylpiperidin-4-yl)methoxy)-1H-indol-2-yl)-1,3,4-trimethylpyridin-2(1H)-one] | 0.0092 | 4.12 | 0.0018
11 | Cc1cc(-c2[nH]c3ccc(O[C@H]4CCCN(C5CCOCC5)C4)cc3c2C(C)C)cn(C)c1=O [Example 40, (S)-5-(3-isopropyl-5-((1-(tetrahydro-2H-pyran-4-yl)piperidin-3-yl)oxy)-1H-indol-2-yl)-1,3-dimethylpyridin-2(1H)-one] | 0.0159 | 5.25 | 0.0108
12 | Cc1cc(-c2[nH]c3ccc(OC4CCNCC4)cc3c2C(C)C)cn2ncnc12 [Example 10, 6-(3-isopropyl-5-(piperidin-4-yloxy)-1H-indol-2-yl)-8-methyl-[1,2,4]triazolo[1,5-a] pyridine] | 0.0006 | 0.653 | 0.0016
13 | Cc1cc(-c2[nH]c3ccc(OCC4CN(C(=O)CN(C)C)C4)cc3c2C(C)C)cn2ncnc12 [Example 107, 2-(dimethylamino)-1-(3-(((3-isopropyl-2-(8-methyl-[1,2,4]triazolo[1,5-a]pyridin-6-yl)-1H-indol-5-yl)oxy)methyl)azetidin-1-yl) ethan-1-one] | 0.0006 | 3.16 | 0.0094
